Measured values from the supplement of paper PMC10307832.

Tests used:
Assay in all cases: relative viability (nuclei count vs DMSO), 5 days (fraction); higher = more cells survive
ABC-1 = test system: ABC-1
How it was run: (§1)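 Five library-drug doses in √10 steps were combined with a fixed anchor-drug dose, or a single drug was given alone, by pin tool to lung cancer cell lines in 1536-well plates the day after seeding. Nuclei were stained and counted after 5 days. Relative viability is the nuclei count in treated wells over that in vehicle wells, taken as the median of duplicate plates.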

CAL-12T = test system: CAL-12T
How it was run: as §1

COR-L 105 = test system: COR-L 105
How it was run: as §1

ChaGo-K-1 = test system: ChaGo-K-1
How it was run: as §1

EMC-BAC-2 = test system: EMC-BAC-2
How it was run: as §1

EPLC-272H = test system: EPLC-272H
How it was run: as §1

HCC-15 = test system: HCC-15
How it was run: as §1

HCC-78 = test system: HCC-78
How it was run: as §1

HOP-62 = test system: HOP-62
How it was run: as §1

LXF-289 = test system: LXF-289
How it was run: as §1

NCI-H1666 = test system: NCI-H1666
How it was run: as §1

CCN(CC)CCCCNc1ncc2cc(-c3cc(OC)cc(OC)c3)c(NC(=O)NC(C)(C)C)nc2n1 + COc1cc2c(Oc3ccc(NC(=O)C4(C(=O)Nc5ccc(F)cc5)CC4)cc3F)ccnc2cc1OCCCN1CCOCC1 [Foretinib] (partner 0.25 µM)
relative viability (ABC-1; first compound 0.01 µM): 1.22
relative viability (ABC-1; first compound 0.03162 µM): 0.951
relative viability (ABC-1; first compound 0.1 µM): 1.3
relative viability (ABC-1; first compound 0.3162 µM): 1.14
relative viability (ABC-1; first compound 1 µM): 1.16
relative viability (CAL-12T; first compound 0.01 µM): 1.13
relative viability (CAL-12T; first compound 0.03162 µM): 1.2
relative viability (CAL-12T; first compound 0.1 µM): 1.35
relative viability (CAL-12T; first compound 0.3162 µM): 1.23
relative viability (CAL-12T; first compound 1 µM): 1.19
relative viability (COR-L 105; first compound 0.01 µM): 1.27
relative viability (COR-L 105; first compound 0.03162 µM): 0.994
relative viability (COR-L 105; first compound 0.1 µM): 1.23
relative viability (COR-L 105; first compound 0.3162 µM): 0.909
relative viability (COR-L 105; first compound 1 µM): 1.15
relative viability (ChaGo-K-1; first compound 0.01 µM): 0.903
relative viability (ChaGo-K-1; first compound 0.03162 µM): 1.05
relative viability (ChaGo-K-1; first compound 0.1 µM): 0.936
relative viability (ChaGo-K-1; first compound 0.3162 µM): 0.956
relative viability (ChaGo-K-1; first compound 1 µM): 0.757
relative viability (EMC-BAC-2; first compound 0.01 µM): 0.54
relative viability (EMC-BAC-2; first compound 0.03162 µM): 1.02
relative viability (EMC-BAC-2; first compound 0.1 µM): 0.983
relative viability (EMC-BAC-2; first compound 0.3162 µM): 1.13
relative viability (EMC-BAC-2; first compound 1 µM): 0.952
relative viability (EPLC-272H; first compound 0.01 µM): 0.63
relative viability (EPLC-272H; first compound 0.03162 µM): 0.877
relative viability (EPLC-272H; first compound 0.1 µM): 0.693
relative viability (EPLC-272H; first compound 0.3162 µM): 0.741
relative viability (EPLC-272H; first compound 1 µM): 0.644
relative viability (HCC-15; first compound 0.01 µM): 1.04
relative viability (HCC-15; first compound 0.03162 µM): 1.19
relative viability (HCC-15; first compound 0.1 µM): 1.03
relative viability (HCC-15; first compound 0.3162 µM): 1.1
relative viability (HCC-15; first compound 1 µM): 0.989
relative viability (HCC-78; first compound 0.01 µM): 0.583
relative viability (HCC-78; first compound 0.03162 µM): 0.53
relative viability (HCC-78; first compound 0.1 µM): 0.586
relative viability (HCC-78; first compound 0.3162 µM): 0.55
relative viability (HCC-78; first compound 1 µM): 0.56
relative viability (HOP-62; first compound 0.01 µM): 1.15
relative viability (HOP-62; first compound 0.03162 µM): 1.13
relative viability (HOP-62; first compound 0.1 µM): 1.24
relative viability (HOP-62; first compound 0.3162 µM): 1.16
relative viability (HOP-62; first compound 1 µM): 1.12
relative viability (LXF-289; first compound 0.01 µM): 0.979
relative viability (LXF-289; first compound 0.03162 µM): 0.989
relative viability (LXF-289; first compound 0.1 µM): 1.02
relative viability (LXF-289; first compound 0.3162 µM): 0.975
relative viability (LXF-289; first compound 1 µM): 0.851
relative viability (NCI-H1666; first compound 0.01 µM): 0.936
relative viability (NCI-H1666; first compound 0.03162 µM): 0.979
relative viability (NCI-H1666; first compound 0.1 µM): 0.977
relative viability (NCI-H1666; first compound 0.3162 µM): 0.892
relative viability (NCI-H1666; first compound 1 µM): 0.919
